Measured values from ChEMBL document CHEMBL3997794, “Design and synthesis of benzodiazepine analogs as isoform-selective human lysine deacetylase inhibitors” (Eur J Med Chem, 2017).

How the values were obtained:
Histone deacetylase 8 = target: T1, Histone deacetylase 8 (Homo sapiens, UniProt Q9BY41); assay: Inhibition of human KDAC8 after 60 mins by fluorescence assay
T1 sequence (Q9BY41 whole entry): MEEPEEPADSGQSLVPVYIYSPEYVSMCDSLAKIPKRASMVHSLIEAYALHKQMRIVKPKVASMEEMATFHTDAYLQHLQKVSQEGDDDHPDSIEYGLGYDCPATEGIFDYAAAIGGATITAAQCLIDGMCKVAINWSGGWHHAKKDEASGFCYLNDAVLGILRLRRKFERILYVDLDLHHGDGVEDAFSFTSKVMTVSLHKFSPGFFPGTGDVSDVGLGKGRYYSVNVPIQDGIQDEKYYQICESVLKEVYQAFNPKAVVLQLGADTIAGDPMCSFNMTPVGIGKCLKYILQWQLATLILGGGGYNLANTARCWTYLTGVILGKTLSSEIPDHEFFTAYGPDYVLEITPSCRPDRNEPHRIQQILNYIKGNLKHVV

[1] = target: T2, Protein deacetylase HDAC6 (Homo sapiens, UniProt Q9UBN7); assay: Inhibition of human KDAC6 using FITC-labeled histone H4 acetylated peptide as substrate after 60 mins by fluorescence assay
T2 sequence (Q9UBN7 whole entry): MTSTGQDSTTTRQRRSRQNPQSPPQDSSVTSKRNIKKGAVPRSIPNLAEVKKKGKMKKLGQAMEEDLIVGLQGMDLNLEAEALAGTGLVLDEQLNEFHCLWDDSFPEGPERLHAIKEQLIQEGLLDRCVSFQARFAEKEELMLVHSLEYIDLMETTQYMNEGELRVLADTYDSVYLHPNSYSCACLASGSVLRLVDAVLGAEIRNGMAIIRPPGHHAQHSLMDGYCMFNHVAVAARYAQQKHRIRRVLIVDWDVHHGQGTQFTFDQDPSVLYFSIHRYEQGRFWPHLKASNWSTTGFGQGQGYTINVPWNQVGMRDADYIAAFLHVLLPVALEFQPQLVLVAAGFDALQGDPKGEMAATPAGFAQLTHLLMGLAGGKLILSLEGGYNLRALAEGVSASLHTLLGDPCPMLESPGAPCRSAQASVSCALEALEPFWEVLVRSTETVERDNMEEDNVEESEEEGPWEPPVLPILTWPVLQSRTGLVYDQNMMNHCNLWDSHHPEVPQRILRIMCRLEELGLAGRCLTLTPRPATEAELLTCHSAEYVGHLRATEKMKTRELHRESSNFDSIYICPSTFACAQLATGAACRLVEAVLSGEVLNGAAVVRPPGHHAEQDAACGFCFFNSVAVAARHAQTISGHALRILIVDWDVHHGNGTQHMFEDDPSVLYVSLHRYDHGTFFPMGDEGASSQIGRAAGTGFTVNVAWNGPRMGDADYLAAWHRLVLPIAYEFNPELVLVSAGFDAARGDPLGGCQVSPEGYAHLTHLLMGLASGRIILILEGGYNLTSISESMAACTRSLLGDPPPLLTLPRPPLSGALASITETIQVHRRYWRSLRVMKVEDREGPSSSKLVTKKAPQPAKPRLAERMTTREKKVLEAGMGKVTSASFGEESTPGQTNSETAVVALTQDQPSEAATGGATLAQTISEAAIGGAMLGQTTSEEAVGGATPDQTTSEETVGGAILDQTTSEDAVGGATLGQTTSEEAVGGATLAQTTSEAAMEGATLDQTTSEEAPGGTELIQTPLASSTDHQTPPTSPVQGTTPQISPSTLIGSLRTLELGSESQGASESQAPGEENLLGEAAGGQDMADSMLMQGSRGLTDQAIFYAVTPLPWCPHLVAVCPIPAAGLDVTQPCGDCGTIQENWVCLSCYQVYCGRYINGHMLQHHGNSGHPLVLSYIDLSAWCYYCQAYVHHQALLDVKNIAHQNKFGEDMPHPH

Histone deacetylase 3 [2] = target: T3, Histone deacetylase 3 (Homo sapiens, UniProt O15379); assay: Inhibition of human KDAC3 using FITC-labeled p53 acetylated peptide as substrate after 60 mins by fluorescence assay
T3 sequence (O15379 whole entry): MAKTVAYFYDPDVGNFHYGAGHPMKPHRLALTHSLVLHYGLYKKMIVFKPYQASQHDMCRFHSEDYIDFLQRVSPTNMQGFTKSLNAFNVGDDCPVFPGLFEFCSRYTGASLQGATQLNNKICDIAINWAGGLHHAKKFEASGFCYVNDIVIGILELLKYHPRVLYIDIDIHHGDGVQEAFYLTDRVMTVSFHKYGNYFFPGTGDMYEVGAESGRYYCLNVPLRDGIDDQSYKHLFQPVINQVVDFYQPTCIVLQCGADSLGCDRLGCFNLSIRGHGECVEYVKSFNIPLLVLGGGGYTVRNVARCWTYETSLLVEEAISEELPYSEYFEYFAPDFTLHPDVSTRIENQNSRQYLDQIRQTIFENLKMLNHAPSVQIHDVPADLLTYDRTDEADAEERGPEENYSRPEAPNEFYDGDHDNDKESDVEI

Histone deacetylase 1 [3] = target: T4, Histone deacetylase 1 (Homo sapiens, UniProt Q13547); assay: Inhibition of human KDAC1 using substrate A after 60 mins by fluorescence assay
T4 sequence (Q13547 whole entry): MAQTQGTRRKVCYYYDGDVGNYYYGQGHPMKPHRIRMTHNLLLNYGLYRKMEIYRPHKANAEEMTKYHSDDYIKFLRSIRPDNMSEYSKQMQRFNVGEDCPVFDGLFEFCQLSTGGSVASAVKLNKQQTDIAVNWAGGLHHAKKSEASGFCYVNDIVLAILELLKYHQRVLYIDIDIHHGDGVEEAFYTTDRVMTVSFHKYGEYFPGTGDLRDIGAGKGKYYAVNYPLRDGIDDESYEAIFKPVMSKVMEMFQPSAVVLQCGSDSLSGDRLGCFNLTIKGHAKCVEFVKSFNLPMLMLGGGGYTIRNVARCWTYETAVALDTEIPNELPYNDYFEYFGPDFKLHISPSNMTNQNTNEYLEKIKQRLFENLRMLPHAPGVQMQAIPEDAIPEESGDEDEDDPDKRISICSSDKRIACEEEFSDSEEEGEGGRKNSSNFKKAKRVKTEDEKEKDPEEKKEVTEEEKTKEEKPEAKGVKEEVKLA

[4] = target: T5, Histone deacetylase 8 (Homo sapiens) (UniProt Q9BY41); assay: Inhibition of human KDAC8 at 30 uM after 60 mins by fluorescence assay relative to control
T5 sequence (whole entry): T1 sequence (Q9BY41 whole entry)

Histone deacetylase 3 [5] = target: T3, Histone deacetylase 3; assay: Inhibition of human KDAC3 at 30 uM using FITC-labeled p53 acetylated peptide as substrate after 60 mins by fluorescence assay relative to control
Histone deacetylase 1 [6] = target: T4, Histone deacetylase 1; assay: Inhibition of human KDAC1 at 30 uM using substrate A after 60 mins by fluorescence assay relative to control
[7] = target: T6, Protein deacetylase HDAC6 (Homo sapiens) (UniProt Q9UBN7); details: at 30 µM
T6 sequence (whole entry): T2 sequence (Q9UBN7 whole entry)
Description: Inhibition of human KDAC6 at 30 uM using FITC-labeled histone H4 acetylated peptide as substrate after 60 mins by fluorescence assay relative to control

| Compound | IC50 (Histone deacetylase 8) [µM] | IC50 [1] [µM] | IC50 (Histone deacetylase 3 [2]) [µM] | IC50 (Histone deacetylase 1 [3]) [µM] | inhibition [4] [%] | inhibition (Histone deacetylase 3 [5]) [%] | inhibition (Histone deacetylase 1 [6]) [%] | inhibition [7] [%] |
| --- | --- | --- | --- | --- | --- | --- | --- | --- |
| CC(C)(C)Oc1ccc(C[C@@H]2N=C(c3ccccc3)c3ccccc3NC2=O)cc1 | > 30 | > 30 | > 30 | > 30 | 0 | 0 | 4.79 | 0 |
| COC(=O)CCCCN1C(=O)[C@H](CCCCNC(=O)OC(C)(C)C)N=C(c2ccccc2)c2ccccc21 | > 30 | > 30 | > 30 | > 30 | 1.03 | 1.96 | 8.22 | 0 |
| CC(C)C[C@@H]1N=C(c2ccccc2)c2ccccc2N(CCCCC(=O)NO)C1=O | > 30 | 2.33 | 0.57 | 5.9 | 45.2 | 98.5 | 80.5 | 91.6 |
| O=C(O)CCCCN1C(=O)[C@H](CC(=O)O)N=C(c2ccccc2)c2ccccc21 | > 30 | > 30 | > 30 | > 30 | 0 | 1.93 | 0 | 0 |
| CSCC[C@@H]1N=C(c2ccccc2)c2ccccc2NC1=O | > 30 | > 30 | > 30 | > 30 | 9.07 | 0 | 0 | 2.62 |
| C[C@H](OCc1ccccc1)[C@@H]1N=C(c2ccccc2)c2ccccc2N(CCCCC(=O)O)C1=O | > 30 | > 30 | > 30 | > 30 | 15.4 | 0 | 2.94 | 0 |
| COC(=O)CCCCN1C(=O)[C@H](Cc2ccccc2)N=C(c2ccccc2)c2ccccc21 | > 30 | > 30 | > 30 | > 30 | 0 | 1.85 | 1.72 | 6.49 |
| O=C(O)C[C@@H]1N=C(c2ccccc2)c2ccccc2NC1=O | > 30 | > 30 | > 30 | > 30 | 0 | 0 | 3.13 | 0 |
| CC[C@H](C)[C@@H]1N=C(c2ccccc2)c2ccccc2N(CCCCC(=O)O)C1=O | > 30 | > 30 | > 30 | > 30 | 3.99 | 0 | 0 | 0 |
| COC(=O)CCCCN1C(=O)[C@H](C)N=C(c2ccccc2)c2ccccc21 | > 30 | > 30 | > 30 | > 30 | 12.7 | 4.62 | 9.4 | 8.84 |
| O=C(O)CC[C@@H]1N=C(c2ccccc2)c2ccccc2NC1=O | > 30 | > 30 | > 30 | > 30 | 0 | 0 | 2.44 | 0 |
| O=C(C[C@@H]1N=C(c2ccccc2)c2ccccc2NC1=O)NC(c1ccccc1)(c1ccccc1)c1ccccc1 | > 30 | > 30 | > 30 | > 30 | 0 | 0 | 4.31 | 0 |
| O=C(CCCNC(=O)C[C@@H]1N=C(c2ccccc2)c2ccccc2NC1=O)NO | > 30 | 1.76 | 3.21 | 17.4 | 45.1 | 90.7 | 63.5 | 95 |
| C[C@@H](OCc1ccccc1)[C@@H]1N=C(c2ccccc2)c2ccccc2N(CCCCC(=O)NO)C1=O | 29.5 | 2.05 | 0.91 | 4.55 | 50.1 | 97.2 | 82.4 | 98.1 |
| CC(C)(C)SC[C@H]1N=C(c2ccccc2)c2ccccc2N(CCCCC(=O)NO)C1=O | > 30 | 5.37 | 0.75 | 7.99 | 44.6 | 98.8 | 79.9 | 88 |
| CC(C)[C@@H]1N=C(c2ccccc2)c2ccccc2N(CCCCC(=O)O)C1=O | > 30 | > 30 | > 30 | > 30 | 3.18 | 0 | 2.24 | 0 |
| N=C(N)NCCC[C@@H]1N=C(c2ccccc2)c2ccccc2N(CCCCC(=O)NO)C1=O | > 30 | 2.63 | 0.22 | 1.44 | 27.9 | 101 | 91.8 | 91.2 |
| CC[C@H](C)[C@@H]1N=C(c2ccccc2)c2ccccc2NC1=O | > 30 | > 30 | > 30 | > 30 | 0 | 0.56 | 6.77 | 1.82 |
| CC(C)(C)SC[C@H]1N=C(c2ccccc2)c2ccccc2N(CCCCC(=O)O)C1=O | > 30 | > 30 | > 30 | > 30 | 8.31 | 0 | 12.1 | 2.08 |
| CC(C)C[C@@H]1N=C(c2ccccc2)c2ccccc2N(CCCCC(=O)O)C1=O | > 30 | > 30 | > 30 | > 30 | 7 | 0 | 3.1 | 0 |
| CC(C)(C)OC[C@@H]1N=C(c2ccccc2)c2ccccc2N(CCCCC(=O)O)C1=O | > 30 | > 30 | > 30 | > 30 | 5.87 | 0 | 3.74 | 0 |
| CC(C)(C)OC(=O)NCCCC[C@@H]1N=C(c2ccccc2)c2ccccc2NC1=O | > 30 | > 30 | > 30 | > 30 | 0 | 0 | 2.97 | 0 |
| CC(C)(C)OC(=O)CC[C@H]1N=C(c2ccccc2)c2ccccc2NC1=O | > 30 | > 30 | > 30 | > 30 | 4.35 | 3.85 | 10.5 | 4.3 |
| C[C@H](OCc1ccccc1)[C@@H]1N=C(c2ccccc2)c2ccccc2NC1=O | > 30 | > 30 | > 30 | > 30 | 9.14 | 2.49 | 1.5 | 3.08 |
| O=C1CN=C(c2ccccc2)c2ccccc2N1 [RO-052921] | > 30 | > 30 | > 30 | > 30 | 2.82 | 3.45 | 7.95 | 0 |
